In patent publication US20240336608A1, “IL4I1 INHIBITORS AND METHODS OF USE” (Merck Sharp & Dohme LLC, priority 2023, published 2024):

Molecular target: T1, recombinant IL4I1 (Homo sapiens, UniProt Q96RQ9)
T1 construct: purchased R&D Systems 5684-AO-020
T1 sequence (Q96RQ9 22-567): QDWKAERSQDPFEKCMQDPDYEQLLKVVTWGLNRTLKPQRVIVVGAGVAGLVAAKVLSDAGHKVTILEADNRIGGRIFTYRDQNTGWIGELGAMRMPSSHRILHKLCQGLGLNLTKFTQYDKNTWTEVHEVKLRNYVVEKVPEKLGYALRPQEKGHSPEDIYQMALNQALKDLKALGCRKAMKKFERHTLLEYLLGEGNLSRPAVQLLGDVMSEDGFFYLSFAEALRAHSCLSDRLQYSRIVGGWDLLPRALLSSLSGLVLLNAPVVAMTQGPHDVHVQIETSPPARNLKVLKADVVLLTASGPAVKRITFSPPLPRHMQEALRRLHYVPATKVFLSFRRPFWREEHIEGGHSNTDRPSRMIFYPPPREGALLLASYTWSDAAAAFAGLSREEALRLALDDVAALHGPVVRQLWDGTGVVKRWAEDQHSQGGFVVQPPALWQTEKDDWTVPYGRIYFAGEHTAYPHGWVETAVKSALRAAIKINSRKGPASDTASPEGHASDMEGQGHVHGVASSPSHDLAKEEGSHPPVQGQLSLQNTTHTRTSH
Assay: IL4I1 Enzymatic Assay (Amplex Red/HRP coupled detection of H2O2, fluorescence)
Assay type: biochemical
Settings: 1 nM recombinant IL4I1; four-hour pre-incubation with compound; 1 mM each Phe, Tyr, Trp; ten-point titration
Procedure, shortened: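 H2O2 output was coupled to resorufin fluorescence (ex 544/em 590) via 0.05 mM Amplex Red and 1 U/mL HRP. Substrate: Phe, Tyr, Trp at 1 mM each; enzyme 1 nM, 4 h compound pre-incubation, 120 min reaction, pH 7.0 Hepes. EC50 by nonlinear four-parameter regression, 1:3 ten-point titration.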

| Compound | EC50 |
| --- | --- |
| Cc1ccc(-n2cc(C(=O)NCc3cc(-c4ccccc4)no3)nn2)c(C)n1 [Example 234, 1-(2,6-dimethylpyridin-3-yl)-N-((3-phenylisoxazol-5-yl)methyl)-1H-1,2,3-triazole-4-carboxamide] | 9 nM |
| Cc1ccc(-n2cc(C(=O)NCc3cc(-c4ccccn4)no3)nn2)c(C)n1 [Example 235, 1-(2,6-dimethylpyridin-3-yl)-N-((3-(pyridin-2-yl)isoxazol-5-yl)methyl)-1H-1,2,3-triazole-4-carboxamide] | 388 nM |
| Cc1ccc(-n2cc(C(=O)NCc3cc(-c4ccccc4)on3)nn2)c(C)n1 [Example 237, 1-(2,6-dimethylpyridin-3-yl)-N-((5-phenylisoxazol-3-yl)methyl)-1H-1,2,3-triazole-4-carboxamide] | 7 nM |
| Cc1ccc(-n2cc(C(=O)NCc3cc(-c4ccccn4)on3)nn2)c(C)n1 [Example 238, 1-(2,6-dimethylpyridin-3-yl)-N-((5-(pyridin-2-yl)isoxazol-3-yl)methyl)-1H-1,2,3-triazole-4-carboxamide] | 76 nM |
| O=C(NCc1nnc(-c2ccccc2)s1)c1nnn2ccccc12 [Example 239, N-((5-phenyl-1,3,4-thiadiazol-2-yl)methyl)-[1,2,3]triazolo[1,5-a]pyridine-3-carboxamide] | 591 nM |
| O=C(NCc1nnc(-c2ccccc2)s1)c1cn(Cc2ccccc2)nn1 [Example 241, 1-benzyl-N-((5-phenyl-1,3,4-thiadiazol-2-yl)methyl)-1H-1,2,3-triazole-4-carboxamide] | 11 nM |
| CC(C)(O)c1cc(C(=O)NCc2cc(-c3ccccc3)no2)on1 [Example 247, 3-(2-hydroxypropan-2-yl)-N-((3-phenylisoxazol-5-yl)methyl)isoxazole-5-carboxamide] | 916 nM |
| CC(C)(O)c1cc(C(=O)NCc2cc(-c3ccccc3)on2)on1 [Example 248, 3-(2-hydroxypropan-2-yl)-N-((5-phenylisoxazol-3-yl)methyl)isoxazole-5-carboxamide] | 303 nM |
| O=C(NCc1cc(-c2ccccc2)no1)c1cn(C2COC2)nn1 [Example 253, 1-(oxetan-3-yl)-N-((3-phenylisoxazol-5-yl)methyl)-1H-1,2,3-triazole-4-carboxamide] | 209 nM |
| CC(C)(O)c1cc(C(=O)NCc2ccc(-c3ccccc3)nn2)on1 [Example 254, 3-(2-hydroxypropan-2-yl)-N-((6-phenylpyridazin-3-yl)methyl)isoxazole-5-carboxamide] | 995 nM |
| CC[C@H](c1ccc(F)cc1)n1cc(C(=O)NCc2nnc(-c3ccccc3)s2)nn1 [Example 256, (R)-1-(1-(4-fluorophenyl)propyl)-N-((5-phenyl-1,3,4-thiadiazol-2-yl)methyl)-1H-1,2,3-triazole-4-carboxamide] | 3 nM |
| CC[C@@H](c1ccc(F)cc1)n1cc(C(=O)NCc2nnc(-c3ccccc3)s2)nn1 [Example 257, (S)-1-(1-(4-fluorophenyl)propyl)-N-((5-phenyl-1,3,4-thiadiazol-2-yl)methyl)-1H-1,2,3-triazole-4-carboxamide] | 19 nM |
| Cc1cc(C(=O)NCc2nnc(-c3ccccc3)s2)ns1 [Example 260, 5-methyl-N-((5-phenyl-1,3,4-thiadiazol-2-yl)methyl)isothiazole-3-carboxamide] | 69 nM |
| Cc1ccc(-n2cc(C(=O)NCc3ccc(-c4ccccc4)nn3)nn2)c(C)n1 [Example 261, 1-(2,6-dimethylpyridin-3-yl)-N-((6-phenylpyridazin-3-yl)methyl)-1H-1,2,3-triazole-4-carboxamide] | 25 nM |
| Cc1ccc(-n2cc(C(=O)NCc3cc(-c4ccncc4)on3)nn2)c(C)n1 [Example 266, 1-(2,6-dimethylpyridin-3-yl)-N-((5-(pyridin-4-yl)isoxazol-3-yl)methyl)-1H-1,2,3-triazole-4-carboxamide] | 26 nM |
| CC(C)(C(N)=O)n1cc(C(=O)NCc2cc(-c3ccccc3)on2)nn1 [Example 271, 1-(1-amino-2-methyl-1-oxopropan-2-yl)-N-((5-phenylisoxazol-3-yl)methyl)-1H-1,2,3-triazole-4-carboxamide] | 27 nM |
| Cc1ccc(-n2cc(C(=O)NCc3cc(-c4nccs4)on3)nn2)c(C)n1 [Example 273, 1-(2,6-dimethylpyridin-3-yl)-N-((5-(thiazol-2-yl)isoxazol-3-yl)methyl)-1H-1,2,3-triazole-4-carboxamide] | 511 nM |

Other lines, results leading:

| EC50 | Compound |
| --- | --- |
| 10 nM | O=C(NCc1nnc(-c2ccccc2)s1)c1cn(CCO)nn1 [Example 233, 1-(2-hydroxyethyl)-N-((5-phenyl-1,3,4-thiadiazol-2-yl)methyl)-1H-1,2,3-triazole-4-carboxamide] |
| 12 nM | COc1ccc(-n2cc(C(=O)NCc3nnc(-c4ccccc4)s3)nn2)cn1 [Example 236, 1-(6-methoxypyridin-3-yl)-N-((5-phenyl-1,3,4-thiadiazol-2-yl)methyl)-1H-1,2,3-triazole-4-carboxamide] |
| 163 nM | O=C(NCc1nnc(-c2ccccc2)s1)c1cn(-c2ccncc2)nn1 [Example 240, N-((5-phenyl-1,3,4-thiadiazol-2-yl)methyl)-1-(pyridin-4-yl)-1H-1,2,3-triazole-4-carboxamide] |
| 705 nM | O=C(NCc1nnc(-c2ccccc2)s1)c1cn(-c2cccnc2)nn1 [Example 242, N-((5-phenyl-1,3,4-thiadiazol-2-yl)methyl)-1-(pyridin-3-yl)-1H-1,2,3-triazole-4-carboxamide] |
| 23 nM | O=C(NCc1nnc(-c2ccncc2)s1)c1cn(C2CC2)nn1 [Example 243, 1-cyclopropyl-N-((5-(pyridin-4-yl)-1,3,4-thiadiazol-2-yl)methyl)-1H-1,2,3-triazole-4-carboxamide] |
| 104 nM | O=C(NCc1cc(-c2ccncc2)on1)c1cn(C2CC2)nn1 [Example 246, 1-cyclopropyl-N-((5-(pyridin-4-yl)isoxazol-3-yl)methyl)-1H-1,2,3-triazole-4-carboxamide] |
| 15 nM | O=C(NCc1nnc(-c2ccncc2)s1)c1cn(CC(F)(F)F)nn1 [Example 249, N-((5-(pyridin-4-yl)-1,3,4-thiadiazol-2-yl)methyl)-1-(2,2,2-trifluoroethyl)-1H-1,2,3-triazole-4-carboxamide] |
| 45 nM | COC(=O)C(C)(C)n1cc(C(=O)NCc2nnc(-c3ccccc3)s2)nn1 [Example 255, methyl 2-methyl-2-(4-(((5-phenyl-1,3,4-thiadiazol-2-yl)methyl)carbamoyl)-1H-1,2,3-triazol-1-yl)propanoate] |
| 480 nM | Cc1ccc(-n2cc(C(=O)NCc3nnc(-c4cccnc4)s3)nn2)c(C)n1 [Example 264, 1-(2,6-dimethylpyridin-3-yl)-N-((5-(pyridin-3-yl)-1,3,4-thiadiazol-2-yl)methyl)-1H-1,2,3-triazole-4-carboxamide] |
| 16 nM | Cc1ccc(-n2cc(C(=O)NCc3nnc(-c4ccncc4)s3)nn2)c(C)n1 [Example 265, 1-(2,6-dimethylpyridin-3-yl)-N-((5-(pyridin-4-yl)-1,3,4-thiadiazol-2-yl)methyl)-1H-1,2,3-triazole-4-carboxamide] |
| 145 nM | Cc1ccc(-n2cc(C(=O)NCc3nnc(-c4ccccc4)s3)nn2)cn1 [Example 267, 1-(6-methylpyridin-3-yl)-N-((5-phenyl-1,3,4-thiadiazol-2-yl)methyl)-1H-1,2,3-triazole-4-carboxamide] |
| 8 nM | O=C(NCc1nnc(-c2ccccc2)s1)c1cn(C2CC2)nn1 [Example 268, 1-cyclopropyl-N-((5-phenyl-1,3,4-thiadiazol-2-yl)methyl)-1H-1,2,3-triazole-4-carboxamide] |
| 10 nM | CC(C)n1cc(C(=O)NCc2nnc(-c3ccncc3)s2)nn1 [Example 269, 1-isopropyl-N-((5-(pyridin-4-yl)-1,3,4-thiadiazol-2-yl)methyl)-1H-1,2,3-triazole-4-carboxamide] |
| 20 nM | Cc1cnc(-n2cc(C(=O)NCc3nnc(-c4ccccc4)s3)nn2)c(C)n1 [Example 270, 1-(3,5-dimethylpyrazin-2-yl)-N-((5-phenyl-1,3,4-thiadiazol-2-yl)methyl)-1H-1,2,3-triazole-4-carboxamide] |
| 12 nM | O=C(NCc1nnc(-c2ccccc2)s1)c1cn(C(F)F)nn1 [Example 272, 1-(difluoromethyl)-N-((5-phenyl-1,3,4-thiadiazol-2-yl)methyl)-1H-1,2,3-triazole-4-carboxamide] |
| 31 nM | O=C(NCc1nnc(-c2ccccc2)s1)c1cn(C(F)(F)F)nn1 [Example 274, N-((5-phenyl-1,3,4-thiadiazol-2-yl)methyl)-1-(trifluoromethyl)-1H-1,2,3-triazole-4-carboxamide] |
| 179 nM | Cc1nc(C2COC2)ccc1-n1cc(C(=O)NCc2nnc(-c3ccccc3)s2)nn1 [Example 277, 1-(2-methyl-6-(oxetan-3-yl)pyridin-3-yl)-N-((5-phenyl-1,3,4-thiadiazol-2-yl)methyl)-1H-1,2,3-triazole-4-carboxamide] |
| 15 nM | Cc1ccc(-n2cc(C(=O)NCc3nnc(-c4ccccc4)s3)nn2)c(Cl)n1 [Example 278, 1-(2-chloro-6-methylpyridin-3-yl)-N-((5-phenyl-1,3,4-thiadiazol-2-yl)methyl)-1H-1,2,3-triazole-4-carboxamide] |
